Results from patent US7855232B2, “Organoselenium compound for cancer chemoprevention” (LKT Laboratories, Inc., priority 2001, dated 2010).
Marks after values point to notes of the source that are not given here.

Tested on: Glutathione S-Transferase
Assay: Glutathione S-transferase (GST) activity in tissue cytosol of treated mice, CDNB substrate
Assay type: in vivo, Female A/J mice
Settings: for Ratio Test/con (GST): gavage; for GST act.: gavage in corn oil
Description: The activity of cytosolic was assayed according to the method of Habig et al. using 1-chloro-2,4-dinitrobenzene (CDNB) as the substrate. Habig et al, J. Biol. Chem. 249:7130-7139 (1974). The complete solution contains, in a total volume of 2.0 mL, 0.1 M phosphate buffer, pH 6.5, 5 mM glutathione, 1 mM CDNB, and 20 μL of the cytosol. The reaction was monitored at 340 nm in a Beckman Model DU65 UV-VIS spectrophotometer. Assays were performed at 30° C. Complete assay mixture without the cytosolic enzyme was used as the reference blank. Data as analyzed by the Student's “t” test and P values were obtained in comparison to the control.

[1] = colon, dose 0.02 mmol/Kg body weight
[2] = colon, dose 0.04 mmol/Kg body weight
[3] = forestomach, dose 0.02 mmol/Kg body weight
[4] = forestomach, dose 0.04 mmol/Kg body weight
[5] = liver, dose 0.02 mmol/Kg body weight
[6] = liver, dose 0.04 mmol/Kg body weight
[7] = lung, dose 0.02 mmol/Kg body weight
[8] = lung, dose 0.04 mmol/Kg body weight
[9] = small intestinal mucosa, dose 0.02 mmol/Kg body weight
[10] = small intestinal mucosa, dose 0.04 mmol/Kg body weight

N#C[Se]Cc1ccc(C[Se]C#N)s1 [(2) TDMSC, thienyl-2,5-di-methylene selenocyanate]
Ratio Test/con (GST) [1]: 1.00
GST act. [1]: 0.40 ± 0.04 μmol/min mg protein
Ratio Test/con (GST) [2]: 1.00
GST act. [2]: 0.40 ± 0.01 μmol/min mg protein
Ratio Test/con (GST) [3]: 1.15
GST act. [3]: 0.90 ± 0.12 μmol/min mg protein
Ratio Test/con (GST) [4]: 1.15
GST act. [4]: 0.90 ± 0.11 ^g μmol/min mg protein
Ratio Test/con (GST) [5]: 1.27
GST act. [5]: 1.43 ± 0.2 ^g μmol/min mg protein
Ratio Test/con (GST) [6]: 1.12
GST act. [6]: 1.26 ± 0.21 μmol/min mg protein
Ratio Test/con (GST) [7]: 1.04
GST act. [7]: 0.49 ± 0.07 μmol/min mg protein
Ratio Test/con (GST) [8]: 1.15
GST act. [8]: 0.54 ± 0.09 μmol/min mg protein
Ratio Test/con (GST) [9]: 1.03
GST act. [9]: 0.35 ± 0.01 μmol/min mg protein
Ratio Test/con (GST) [10]: 1.18
GST act. [10]: 0.40 ± 0.16 μmol/min mg protein
